According to PMC6925768, “Determination of Anlotinib, a Tyrosine Kinase Inhibitor, in Rat Plasma by UHPLC-MS/MS and Its Application to a Pharmacokinetic Study” (Journal of Analytical Methods in Chemistry, 2019):
Where two headings read alike, the source gives them in different places. Blank lines part the entries; values can stand above or below the molecule they belong to.

Assays:
[1] = Stability of stock solutions; type: physicochemical; conditions: stock solution in methanol; for Stability of stock solution, long-term test: 4°C for 2 weeks; for Stability of stock solution, short-term test: room temperature for 24 hours
Experimental: (§1) The stability of three concentrations (0.25, 5, 40 ng/mL) of QCs was analyzed under typical storage conditions: (1) rat plasma stored at room temperature for 12 hours (short-term stability); (2) rat plasma stored at −80°C for 30 days (long-term stability); and (3) under three freeze-thaw cycles from −80°C to room temperature. The stability of stock solution of anlotinib and IS was analyzed under room temperature for 24 hours as well as at 4°C for 2 weeks.

[2] = tested on: advanced non-small-cell lung cancer; design: method as in PMID 30098152; conditions: advanced non-small-cell lung cancer after second-line or further treatment; cited from earlier work
[3] = Stability of anlotinib in rat plasma under various storage conditions; type: in vitro ADME; conditions: n = 3; for Short-term stability, Mean / Short-term stability, RE: room temperature 12 hours; for Freeze/thaw stability, Mean / Freeze/thaw stability, RE: three freeze-thaw cycles −80°C to room temperature; for Long-term stability, Mean / Long-term stability, RE: −80°C 30 days
Experimental: as §1

[4] = tested on: human tumor xenograft models; design: method as in PMID 27716285; conditions: especially colon, ovarian, liver, renal, glioma, non-small-cell lung; cited from earlier work
[5] = design: method as in PMID 29620050; conditions: reported literature, different dose; cited from earlier work
[6] = Pharmacokinetic study in rats after single oral administration; type: in vivo, Sprague Dawley rats; conditions: 10 mg/kg
Experimental: Male Sprague Dawley rats weighing 250 ± 20 g were purchased from the Shanghai Laboratory Animal Co. (Shanghai, China). All experimental rats were housed in a standard cage with a humidity of 50 ± 20%, a constant temperature of 23–25°C, and a light/dark cycle condition for at least 7 days before the pharmacokinetic study. After 8 h fasting (animals had free access to water), the rats received a single oral administration with anlotinib at a dosage of 10 mg/kg. All animal experiments in present study were approved by the Institutional Animal Care and Use Committee of Wenzhou Medical University (Wenzhou, China).
Blood samples (150 μL) were collected from the tail vein before the dose and at 0.17, 0.75, 1, 1.5, 2, 3, 4, 5, 7, 9, 12, 24, and 48 h after the oral administration of anlotinib. These series of blood samples were transferred into 1.5 mL heparinized tubes. The rat blood samples were immediately centrifuged for 10 min at 5,000 rpm at 4°C, and then the separation of plasma was stored at −80°C until analysis. The noncompartmental statistical model was performed to calculate the pharmacokinetic parameters of anlotinib by Drug and Statistics 3.0 software.

[7] = tested on: refractory advanced non-small-cell lung cancer; design: method as in PMID 29438373; conditions: patients with refractory advanced non-small-cell lung cancer; cited from earlier work
[8] = male, Sprague Dawley, rat plasma, n = 6
[9] = male, Sprague Dawley, rat, plasma, po, n = 6

Stability of stock solution, long-term test [1]: 98.73%
Stability of stock solution, short-term test [1]: 99.35%
Compound: Cc1ccc(NC(=O)c2ccc(CN3CCN(C)CC3)cc2)cc1Nc1nccc(-c2cccnc2)n1 [IS, Imatinib]

Stability of stock solution, long-term test [1]: 95.96%
Stability of stock solution, short-term test [1]: 98.96%
Short-term stability, Mean ([3]; 0.25 ng/ml in rat plasma): 0.26 ng/mL
Short-term stability, RE ([3]; 0.25 ng/ml in rat plasma): 4.65%
Freeze/thaw stability, Mean ([3]; 0.25 ng/ml in rat plasma): 0.26 ng/mL
Freeze/thaw stability, RE ([3]; 0.25 ng/ml in rat plasma): 2.03%
Long-term stability, Mean ([3]; 0.25 ng/ml in rat plasma): 0.25 ng/mL
Long-term stability, RE ([3]; 0.25 ng/ml in rat plasma): −1.55%
Autosampler stability, Mean ([3]; 0.25 ng/ml): 0.24 ng/mL
Autosampler stability, RE ([3]; 0.25 ng/ml): −2.27%
Short-term stability, Mean ([3]; 5 ng/ml in rat plasma): 5.21 ng/mL
Short-term stability, RE ([3]; 5 ng/ml in rat plasma): 4.27%
Freeze/thaw stability, Mean ([3]; 5 ng/ml in rat plasma): 4.94 ng/mL
Freeze/thaw stability, RE ([3]; 5 ng/ml in rat plasma): −1.13%
Long-term stability, Mean ([3]; 5 ng/ml in rat plasma): 5.19 ng/mL
Long-term stability, RE ([3]; 5 ng/ml in rat plasma): 3.75%
Autosampler stability, Mean ([3]; 5 ng/ml): 5.14 ng/mL
Autosampler stability, RE ([3]; 5 ng/ml): 2.75%
Short-term stability, Mean ([3]; 40 ng/ml in rat plasma): 41.64 ng/mL
Short-term stability, RE ([3]; 40 ng/ml in rat plasma): 4.1%
Freeze/thaw stability, Mean ([3]; 40 ng/ml in rat plasma): 40.55 ng/mL
Freeze/thaw stability, RE ([3]; 40 ng/ml in rat plasma): 1.39%
Long-term stability, Mean ([3]; 40 ng/ml in rat plasma): 41.19 ng/mL
Long-term stability, RE ([3]; 40 ng/ml in rat plasma): 2.97%
Autosampler stability, Mean ([3]; 40 ng/ml): 41.14 ng/mL
Autosampler stability, RE ([3]; 40 ng/ml): 2.85%
AUC(0-inf) [6, 8]: 186 ± 49.2 ng·h/mL
CL/F [6, 8]: 942 mL/min/kg
MRT last ([6]; male, Sprague Dawley, rat plasma, n = 6, read-out: MRT(0-t)): 8.98 ± 1.45 h
MRT inf ([6]; male, Sprague Dawley, rat plasma, n = 6, read-out: MRT(0-∞)): 9.2 ± 1.21 h
half-life ([6]; male, Sprague Dawley, rat plasma, n = 6, read-out: t 1/2 z (converted)): 303 ± 37.2 min
Cmax [6, 9]: 24.2 ± 4.31 ng/mL
Tmax [6, 9]: 3.33 h
AUC0-t ([6]; male, Sprague Dawley, rat, plasma, po, n = 6, read-out: AUC0-t): 184 ± 49.8 ng·h/mL
AUC0-t ([6]; rat plasma, n = 6): 184.431 ± 49.827 ng·h/mL
C max ([6]; rat plasma, n = 6): 24.219 ± 4.311 ng/mL
T max ([6]; rat plasma, n = 6): 3.333 ± 0.816 h
V/F ([6]; rat plasma, n = 6): 406.029 ± 72.748 L/kg
Compound: COc1cc2c(Oc3ccc4[nH]c(C)cc4c3F)ccnc2cc1OCC1(N)CC1 [anlotinib, Anlotinib]
Overall survival and progression-free survival [2]: improve overall survival (OS) and progression-free survival (PFS)
Activity against human tumor xenograft models [4]: broad activity
t1/2 [5]: 5.7 ± 3.1 h
Progression-free survival versus placebo [7]: obvious progression-free survival (PFS) benefits
Toxicity tolerance [7]: good toxicity tolerance
